Among the data in article PMC6458995, “MAP4K4 Inhibition Promotes Survival of Human Stem Cell-Derived Cardiomyocytes and Reduces Infarct Size In Vivo” (Cell Stem Cell, 2019) are remaining activity and residual activity values, retold here.

Common to all, as to test: Dundee kinase panel
Holding throughout (assay type): biochemical
Holding throughout (conditions): for remaining activity at 1 µM: read-out: residual activity

One experiment concerns the target T1, MST2 (Homo sapiens, UniProt Q13188).
T1 construct: lines 1-140) and Reaction Biology
T1 sequence (Q13188 1-491): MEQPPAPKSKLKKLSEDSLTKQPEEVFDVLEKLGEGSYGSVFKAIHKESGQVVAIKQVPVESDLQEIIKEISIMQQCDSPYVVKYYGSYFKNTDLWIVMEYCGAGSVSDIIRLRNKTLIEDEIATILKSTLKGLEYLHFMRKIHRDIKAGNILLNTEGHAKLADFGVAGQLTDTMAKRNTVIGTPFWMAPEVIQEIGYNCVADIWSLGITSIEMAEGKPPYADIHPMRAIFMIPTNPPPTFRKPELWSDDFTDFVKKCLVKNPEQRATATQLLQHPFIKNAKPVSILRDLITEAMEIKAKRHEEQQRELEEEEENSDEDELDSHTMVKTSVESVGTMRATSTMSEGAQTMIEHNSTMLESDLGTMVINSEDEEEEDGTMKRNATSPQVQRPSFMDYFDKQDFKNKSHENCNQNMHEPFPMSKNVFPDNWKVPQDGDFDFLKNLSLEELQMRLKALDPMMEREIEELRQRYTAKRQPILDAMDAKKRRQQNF
As for the experimental part: (§1) Compounds were screened at 1 μM. For key hits, pIC50 values were then determined by HTRF as above. […] Stability in mouse and human liver microsomes was determined by Cyprotex.

Another experiment deals with T2, EPH-B4 (Homo sapiens, UniProt P54760).
T2 construct: lines 1-140) and Reaction Biology
T2 sequence (P54760 16-987): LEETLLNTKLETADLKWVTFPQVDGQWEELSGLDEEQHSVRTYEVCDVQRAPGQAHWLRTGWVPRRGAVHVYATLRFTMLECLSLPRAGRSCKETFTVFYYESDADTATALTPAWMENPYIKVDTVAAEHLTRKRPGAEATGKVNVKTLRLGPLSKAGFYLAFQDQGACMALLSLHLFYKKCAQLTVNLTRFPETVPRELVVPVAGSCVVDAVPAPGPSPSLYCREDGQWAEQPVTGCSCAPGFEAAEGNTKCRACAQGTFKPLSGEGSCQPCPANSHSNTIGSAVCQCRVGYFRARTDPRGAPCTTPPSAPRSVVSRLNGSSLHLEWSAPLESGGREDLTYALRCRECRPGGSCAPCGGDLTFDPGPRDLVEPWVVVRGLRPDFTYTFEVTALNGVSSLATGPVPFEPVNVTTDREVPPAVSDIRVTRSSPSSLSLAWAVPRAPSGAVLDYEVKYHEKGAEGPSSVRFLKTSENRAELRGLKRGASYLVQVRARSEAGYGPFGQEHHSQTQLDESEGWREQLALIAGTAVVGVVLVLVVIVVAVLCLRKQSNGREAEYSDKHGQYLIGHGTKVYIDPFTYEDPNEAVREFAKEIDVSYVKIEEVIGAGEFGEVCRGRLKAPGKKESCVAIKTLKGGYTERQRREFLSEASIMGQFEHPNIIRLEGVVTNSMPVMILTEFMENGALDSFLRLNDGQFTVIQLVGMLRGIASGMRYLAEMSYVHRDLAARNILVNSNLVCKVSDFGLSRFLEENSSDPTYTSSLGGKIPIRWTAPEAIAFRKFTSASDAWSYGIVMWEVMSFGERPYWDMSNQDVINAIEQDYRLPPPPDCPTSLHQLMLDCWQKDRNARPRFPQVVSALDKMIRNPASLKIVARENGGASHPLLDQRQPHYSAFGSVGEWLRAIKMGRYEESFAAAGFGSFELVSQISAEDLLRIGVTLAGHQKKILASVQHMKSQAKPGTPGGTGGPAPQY
As to the method: as §1

The next experiment deals with T3, MNK1 (Homo sapiens, UniProt Q9BUB5).
T3 construct: lines 1-140) and Reaction Biology
T3 sequence (Q9BUB5 whole entry): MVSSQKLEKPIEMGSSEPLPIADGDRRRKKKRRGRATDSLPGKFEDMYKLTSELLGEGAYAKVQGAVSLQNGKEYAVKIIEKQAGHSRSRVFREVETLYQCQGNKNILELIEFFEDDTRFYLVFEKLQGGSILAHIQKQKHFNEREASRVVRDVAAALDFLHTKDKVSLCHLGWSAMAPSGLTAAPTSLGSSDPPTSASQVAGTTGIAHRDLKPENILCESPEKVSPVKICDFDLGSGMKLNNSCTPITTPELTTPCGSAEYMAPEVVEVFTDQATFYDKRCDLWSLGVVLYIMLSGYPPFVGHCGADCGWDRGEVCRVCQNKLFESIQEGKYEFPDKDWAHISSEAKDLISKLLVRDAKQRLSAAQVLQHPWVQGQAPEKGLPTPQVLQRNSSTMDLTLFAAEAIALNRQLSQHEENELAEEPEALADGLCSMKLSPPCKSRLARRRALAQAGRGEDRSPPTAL
As for the experimental part:
as §1

The next experiment addresses T4, PDGFRA (Homo sapiens, UniProt P16234).
T4 construct: lines 1-140) and Reaction Biology
As to the method:
as §1

A further experiment deals with T5, VEGFR (Homo sapiens, UniProt P17948).
T5 construct: lines 1-140) and Reaction Biology
T5 sequence (P17948 784-1338 limits assumed): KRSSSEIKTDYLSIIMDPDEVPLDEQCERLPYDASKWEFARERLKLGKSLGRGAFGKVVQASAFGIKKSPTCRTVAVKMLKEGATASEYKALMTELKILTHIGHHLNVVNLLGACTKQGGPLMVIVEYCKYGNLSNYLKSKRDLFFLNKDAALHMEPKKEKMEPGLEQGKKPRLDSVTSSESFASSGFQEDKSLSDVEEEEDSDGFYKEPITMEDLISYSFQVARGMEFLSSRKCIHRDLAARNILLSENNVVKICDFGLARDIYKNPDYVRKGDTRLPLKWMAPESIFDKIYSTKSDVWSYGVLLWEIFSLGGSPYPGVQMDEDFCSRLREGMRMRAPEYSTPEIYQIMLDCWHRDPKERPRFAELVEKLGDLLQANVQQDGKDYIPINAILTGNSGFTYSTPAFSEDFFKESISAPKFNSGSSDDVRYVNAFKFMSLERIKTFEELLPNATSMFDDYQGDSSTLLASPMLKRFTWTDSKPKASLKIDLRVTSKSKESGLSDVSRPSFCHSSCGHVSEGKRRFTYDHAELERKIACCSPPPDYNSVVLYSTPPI
As for the experimental part: as §1

A further experiment concerns the target T6, TBK1 (Homo sapiens, UniProt Q9UHD2).
T6 construct: lines 1-140) and Reaction Biology
T6 sequence (Q9UHD2 1-729): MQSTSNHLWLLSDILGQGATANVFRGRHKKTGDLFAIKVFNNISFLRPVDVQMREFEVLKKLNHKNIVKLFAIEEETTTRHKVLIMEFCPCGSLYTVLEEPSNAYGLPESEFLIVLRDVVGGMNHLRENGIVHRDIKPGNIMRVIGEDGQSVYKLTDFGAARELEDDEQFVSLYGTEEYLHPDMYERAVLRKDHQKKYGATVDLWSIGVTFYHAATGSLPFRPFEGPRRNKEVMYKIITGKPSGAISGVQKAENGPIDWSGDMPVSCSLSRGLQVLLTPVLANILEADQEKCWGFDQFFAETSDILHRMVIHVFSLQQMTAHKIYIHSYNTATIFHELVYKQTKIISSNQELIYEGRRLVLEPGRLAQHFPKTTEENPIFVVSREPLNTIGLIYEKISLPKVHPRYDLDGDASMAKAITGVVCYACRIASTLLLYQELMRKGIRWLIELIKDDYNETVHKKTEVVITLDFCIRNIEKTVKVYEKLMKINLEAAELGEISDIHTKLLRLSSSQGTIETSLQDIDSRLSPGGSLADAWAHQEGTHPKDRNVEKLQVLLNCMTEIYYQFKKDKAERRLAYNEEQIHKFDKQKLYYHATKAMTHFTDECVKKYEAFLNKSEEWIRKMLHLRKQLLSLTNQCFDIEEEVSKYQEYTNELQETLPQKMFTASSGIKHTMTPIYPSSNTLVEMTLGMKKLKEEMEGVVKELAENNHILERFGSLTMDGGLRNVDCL
As to the method: as §1

Another experiment concerns the target T7, PAK6 (Homo sapiens, UniProt Q9NQU5).
T7 construct: lines 1-140) and Reaction Biology
As for the experimental part: as §1

T4 sequence (P16234 24-1089): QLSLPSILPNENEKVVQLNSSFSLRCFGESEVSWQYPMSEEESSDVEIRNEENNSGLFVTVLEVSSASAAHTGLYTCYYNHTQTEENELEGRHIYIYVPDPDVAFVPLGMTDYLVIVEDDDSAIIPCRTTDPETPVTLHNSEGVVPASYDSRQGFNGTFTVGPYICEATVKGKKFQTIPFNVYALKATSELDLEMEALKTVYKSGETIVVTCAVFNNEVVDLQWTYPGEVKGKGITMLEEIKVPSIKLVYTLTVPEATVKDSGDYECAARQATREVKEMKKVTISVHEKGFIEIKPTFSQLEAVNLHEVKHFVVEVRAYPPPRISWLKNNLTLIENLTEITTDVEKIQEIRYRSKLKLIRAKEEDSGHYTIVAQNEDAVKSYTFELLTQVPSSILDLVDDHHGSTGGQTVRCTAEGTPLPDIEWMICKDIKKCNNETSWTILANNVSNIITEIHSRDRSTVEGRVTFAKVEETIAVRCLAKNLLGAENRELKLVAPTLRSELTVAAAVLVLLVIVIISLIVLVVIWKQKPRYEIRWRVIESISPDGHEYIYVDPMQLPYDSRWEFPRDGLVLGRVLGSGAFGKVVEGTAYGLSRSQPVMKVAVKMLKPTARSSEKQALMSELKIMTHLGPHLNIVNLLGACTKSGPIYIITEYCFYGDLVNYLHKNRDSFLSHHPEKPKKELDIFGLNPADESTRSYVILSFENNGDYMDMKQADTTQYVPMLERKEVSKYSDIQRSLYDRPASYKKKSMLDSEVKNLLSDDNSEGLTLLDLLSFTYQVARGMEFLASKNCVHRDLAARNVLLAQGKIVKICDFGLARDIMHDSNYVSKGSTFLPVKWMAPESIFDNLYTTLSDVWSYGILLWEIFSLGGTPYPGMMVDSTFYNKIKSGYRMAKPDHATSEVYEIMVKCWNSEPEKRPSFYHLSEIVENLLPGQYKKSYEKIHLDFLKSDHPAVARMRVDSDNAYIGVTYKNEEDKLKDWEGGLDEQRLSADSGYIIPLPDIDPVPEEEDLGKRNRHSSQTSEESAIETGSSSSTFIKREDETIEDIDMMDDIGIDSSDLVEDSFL
T7 sequence (Q9NQU5 whole entry): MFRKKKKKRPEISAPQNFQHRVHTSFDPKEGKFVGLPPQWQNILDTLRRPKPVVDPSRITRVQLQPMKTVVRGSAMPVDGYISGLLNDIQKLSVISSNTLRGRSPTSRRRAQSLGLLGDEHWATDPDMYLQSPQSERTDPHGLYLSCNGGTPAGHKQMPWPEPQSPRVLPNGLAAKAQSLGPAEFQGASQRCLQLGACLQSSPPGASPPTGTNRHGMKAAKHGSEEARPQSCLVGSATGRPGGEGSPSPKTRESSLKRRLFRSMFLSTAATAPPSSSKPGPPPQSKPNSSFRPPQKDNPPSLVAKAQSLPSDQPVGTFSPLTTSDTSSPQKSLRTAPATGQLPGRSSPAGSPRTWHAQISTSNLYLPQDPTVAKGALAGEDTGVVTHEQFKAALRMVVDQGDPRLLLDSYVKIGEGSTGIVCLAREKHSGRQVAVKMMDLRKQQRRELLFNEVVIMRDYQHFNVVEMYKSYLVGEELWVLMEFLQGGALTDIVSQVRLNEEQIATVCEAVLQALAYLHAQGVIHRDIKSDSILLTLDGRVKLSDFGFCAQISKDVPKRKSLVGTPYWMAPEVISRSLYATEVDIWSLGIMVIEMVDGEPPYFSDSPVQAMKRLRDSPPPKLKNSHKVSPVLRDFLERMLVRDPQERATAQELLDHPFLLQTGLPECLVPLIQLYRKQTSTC

Regarding `O=C1Nc2ccc(I)cc2/C1=C/c1cc(Br)c(O)c(Br)c1` [GW5074], the remaining activity at 1 µM on MST2 was determined as 93%; at EPH-B4 it was 94%; at MNK1, 82%; on PDGFRA, 24%; on VEGFR, 29%; on TBK1 it was 83%. Further, the remaining activity at 1 µM at PAK6 is 95%.
On to `Nc1ncc(C(=O)NC2CN(C(=O)C3CC3)C2)c2ccc(-c3cccc(F)c3)nc12` [GNE-495], for which the residual activity at MST2 (1 μM) is 76%; on EPH-B4 (1 μM) it was 106%; at MNK1 (1 μM), 53%; at PDGFRA (1 μM), 97%; on VEGFR (1 μM) it was 92%; on TBK1 (1 μM) it was 104%. The residual activity on PAK6 (1 μM) came out at 64%.
For `Oc1ncnc2c1c(-c1ccccc1)cn2-c1ccccc1` [F1386-0303, 5,7-diphenyl-7H-pyrrolo[2,3-d]pyrimidin-4-ol], the remaining activity at 1 µM was determined as 63% at MST2; 102% at EPH-B4; 102% at MNK1; 93% at PDGFRA; 73% on VEGFR; 97% at TBK1. Further, the remaining activity at 1 µM on PAK6 amounted to 105%.
Regarding `COCCOc1ccc(-c2cn(-c3ccccc3)c3nc[nH]c(=O)c23)cc1` [DMX-5804, 5-[4-(2-methoxy-ethoxy)-phenyl]-7-phenyl-3,7-dihydro-pyrrolo[2,3-d]pyrimidin-4-one], the remaining activity at 1 µM turned out to be 46% at MST2; 100% at EPH-B4; 90% at MNK1; 88% on PDGFRA; 27% on VEGFR; 48% on TBK1. Moreover, at PAK6, the remaining activity at 1 µM stood at 118%.
Take `O=C1Cc2c([nH]c3ccc(Br)cc23)-c2ccccc2N1` [Kenpaullone]: the remaining activity at 1 µM at MST2 is 63%; on EPH-B4, 85%; on MNK1, 91%; at PDGFRA, 48%; at VEGFR, 30%; at TBK1, 90%. For the same molecule, the remaining activity at 1 µM at PAK6 was 32%.

The residual activity is the signal under treatment as a percentage of the control signal.
